In paper PMC4728560 (Scientific Reports, 2016):

Test system: Bax mediated cytochrome c release, Bcl-xL
Assay: Cytochrome c release from purified mitochondria by tBid and Bax in the presence of Bcl-xL
Type: biochemical
Settings: mouse liver mitochondria; 5 nM tBid, 50 nM Bax, 300 nM Bcl-xL; 15 min, 30 °C; Western blot; pre-incubation pH 9, 30 °C
Protocol: (A–E) in vitro reconstitution assay on liposome permeabilization. […] The treated Bcl-xL was then added to reactions containing ANTS-DPX liposomes, 100 nM Bax and 20 nM of either cBid (A,B) or cBidmt1(C,D) at pH 7. Liposome permeabilization was quantified by fluorescence after 5h incubation at 37 °C where 100% release was defined as the fluorescence change due to lipid solubilization with 1% Triton X-100. […] Error bars, std. dev. n = 3. To compare between the TCTP treated groups and the Control group statistically, two-way ANOVA test was performed for (A–D) and one-way ANOVA test was performed for (E). […] Colored asterisks above each data point indicate the statistical significance (*p < 0.05; **p < 0.01, no asterisks if p ≥ 0.05). A complete statistical analysis is provided in Supplementary Table 2–4. […] Cyto c extra-mito: in the supernatant, analysed by Western blot. […]
to highlight the pre-incubation), pH 9, 30 C° before being added to the mitochondria at their final concentrations. […] Cytochrome c was detected in the mitochondrial fraction (Cyto c intra-mito) or in the supernatant (Cyto c extra-mito) by Western blot analysis. […]
Cytochrome c release assay. […] Mitochondrial pellets and the corresponding supernatant fractions were subjected to SDS-polyacrylamide gel electrophoresis and analyzed by Western blotting for cytochrome c.

## TCTP: Translationally Controlled Tumor Protein (TCTP/tpt1), recombinant full-length
  inhibition of cytochrome c release in the presence of Bcl-xL: inhibit cytochrome c release in a concentration-dependent manner
